target: T1, Dihydrofolate reductase (Bacillus cereus (strain ATCC 14579 / DSM 31 / CCUG 7414 / JCM 2152 / NBRC 15305 / NCIMB 9373 / NCTC 2599 / NRRL B-3711), UniProt Q81E04); assay: In Vitro Inhibition Assay; settings: pH 7; 25 °C
T1 sequence (Q81E04 whole entry): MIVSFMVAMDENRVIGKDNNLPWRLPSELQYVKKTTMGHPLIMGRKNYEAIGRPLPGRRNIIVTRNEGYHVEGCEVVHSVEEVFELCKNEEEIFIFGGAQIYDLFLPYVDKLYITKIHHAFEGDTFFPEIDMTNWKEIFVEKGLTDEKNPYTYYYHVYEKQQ
Protocol: Enzyme activity assays were performed by monitoring the rate of enzyme-dependent NADPH consumption at an absorbance of 340 nm over a period of several minutes. After an incubation period of 5 min in the presence or absence of the inhibitor, the reaction was initiated with the addition of dihydrofolate. The reactions were performed a minimum of four times to determine the average rate and 50% inhibitory concentration values.

Question: `COc1ccc(OCCCCC(=O)O)cc1Cc1cnc2nc(N)nc(N)c2c1C` [2,4-diamino-5-deazapteridine, 5] was tested. Which IC50 did it give?
Answer: Its IC50 is 1.67 µM.

Question: Which IC50 does the source give for `CCOC(=O)CCCOc1ccc(OC)c(Cc2cnc3nc(N)nc(N)c3c2C)c1` [2,4-diamino-5-deazapteridine, 7] here?
Answer: Its IC50 is 0.88 µM.

Question: With `Nc1nc(N)c2c(ccc3c4ccccc4ccc32)n1` [4,6-diazatetracyclo[8.8.0.0^{2,7}.0^{11,16}]octadeca-1(10),2,4,6,8,11(16),12,14,17-nonaene-3,5-diamine] as the compound, how does the IC50 read?
Answer: The IC50 was over 1000 µM.

Question: With `CCOC(=O)CCCCCOc1ccc(OC)c(Cc2cnc3nc(N)nc(N)c3c2C)c1` [ethyl 6-[3-({2,4-diamino-5-methylpyrido[2,3-d]pyrimidin-6-yl}methyl)-4-methoxyphenoxy]hexanoate] as the compound, how does the IC50 read?
Answer: Its IC50 is 1.85 µM.

Question: For `CN(Cc1cnc2nc(N)nc(N)c2n1)c1ccc2c(Cl)cc(Cl)cc2c1` [6-{[(5,7-dichloronaphthalen-2-yl)(methyl)amino]methyl}pteridine-2,4-diamine], which IC50 is on record?
Answer: The IC50 was 17.6 µM.

Question: With `COc1cc(CCc2c[nH]c3nc(N)nc(N)c23)cc(OC)c1OC` [5-[2-(3,4,5-trimethoxyphenyl)ethyl]-7H-pyrrolo[2,3-d]pyrimidine-2,4-diamine] as the compound, how does the IC50 read?
Answer: The IC50 was 252 µM.

Question: `COc1ccc(OCCCCCC(=O)O)cc1Cc1cnc2nc(N)nc(N)c2c1C` [2,4-diamino-5-deazapteridine, 6] was tested. Which IC50 did it give?
Answer: The IC50 was 0.51 µM.

Question: With `COc1ccc(C#CCCCC(=O)O)cc1Cc1cnc2nc(N)nc(N)c2c1C` [6-[3-({2,4-diamino-5-methylpyrido[2,3-d]pyrimidin-6-yl}methyl)-4-methoxyphenyl]hex-5-ynoic acid] as the compound, how does the IC50 read?
Answer: Its IC50 is 1.9 µM.

Question: With `Cc1nc2nc(N)nc(N)c2nc1CN(C)c1ccc2c(Cl)cc(Cl)cc2c1` [6-{[(5,7-dichloronaphthalen-2-yl)(methyl)amino]methyl}-7-methylpteridine-2,4-diamine] as the compound, how does the IC50 read?
Answer: The IC50 was over 1000 µM.

Question: For `CCOC(=O)CCCCOc1ccc(OC)c(Cc2cnc3nc(N)nc(N)c3c2C)c1` [ethyl 5-[3-({2,4-diamino-5-methylpyrido[2,3-d]pyrimidin-6-yl}methyl)-4-methoxyphenoxy]pentanoate], which IC50 is on record?
Answer: Its IC50 is 0.35 µM.

Question: `COc1cc(NCc2ccc3nc(N)nc(N)c3c2)c(Br)c(OC)c1OC` [6-{[(2-bromo-3,4,5-trimethoxyphenyl)amino]methyl}quinazoline-2,4-diamine] was tested. Which IC50 did it give?
Answer: Its IC50 is 1.1 µM.

Question: How did the IC50 turn out when `Nc1nc(N)c2nc(CNc3ccc4c(Cl)cc(Cl)cc4c3)cnc2n1` [6-{[(5,7-dichloronaphthalen-2-yl)amino]methyl}pteridine-2,4-diamine] was run?
Answer: Its IC50 is 7.58 µM.

Question: With `COc1ccc(C#CCCCCC(=O)O)cc1Cc1cnc2nc(N)nc(N)c2c1C` [2,4-diamino-5-deazapteridine, 2] as the compound, how does the IC50 read?
Answer: The IC50 was 0.27 µM.

Question: For `COc1ccc(I)cc1Cc1cnc(N)nc1N` [5-[(5-iodo-2-methoxyphenyl)methyl]pyrimidine-2,4-diamine], which IC50 is on record?
Answer: The IC50 was 37.3 µM.

Question: `Nc1nc(N)c2nc(CN3c4ccccc4C=Cc4ccccc43)cnc2n1` [6-{2-azatricyclo[9.4.0.0^{3,8}]pentadeca-1(11),3(8),4,6,9,12,14-heptaen-2-ylmethyl}pteridine-2,4-diamine] was tested. Which IC50 did it give?
Answer: Its IC50 is 16.7 µM.

Question: `Nc1nc(N)c2nc(CNc3ccc4cc(Cl)c(Cl)cc4c3)cnc2n1` [6-{[(6,7-dichloronaphthalen-2-yl)amino]methyl}pteridine-2,4-diamine] was tested. Which IC50 did it give?
Answer: The IC50 was 4.82 µM.

Question: With `COc1ccc(OCCCC(=O)O)cc1Cc1cnc2nc(N)nc(N)c2c1C` [4-[3-({2,4-diamino-5-methylpyrido[2,3-d]pyrimidin-6-yl}methyl)-4-methoxyphenoxy]butanoic acid] as the compound, how does the IC50 read?
Answer: The IC50 was 0.6 µM.

Question: How did the IC50 turn out when `COc1ccc(C#CCCCCC(=O)O)cc1Cc1cnc(N)nc1N` was run?
Answer: The IC50 was 69.3 µM.

Question: Which IC50 does the source give for `CN(Cc1cnc2nc(N)nc(N)c2n1)c1ccc2cc(Cl)ccc2c1` [6-{[(6-chloronaphthalen-2-yl)(methyl)amino]methyl}pteridine-2,4-diamine] here?
Answer: Its IC50 is 2.26 µM.

Question: `Nc1nc(N)c2nc(CNc3ccc4cc(Cl)ccc4c3)cnc2n1` [6-{[(6-chloronaphthalen-2-yl)amino]methyl}pteridine-2,4-diamine] was tested. Which IC50 did it give?
Answer: Its IC50 is 6.32 µM.

Question: `COc1ccc(CCCCCC(=O)O)cc1Cc1cnc(N)nc1N` was tested. Which IC50 did it give?
Answer: The IC50 was 150 µM.
